Measured values as given in article PMC9264115, “Pd-catalyzed C–C and C–N cross-coupling reactions in 2-aminothieno[3,2-d]pyrimidin-4(3H)-one series for antiplasmodial pharmacomodulation” (RSC Advances, 2022).
Read-outs that look alike come from different tables or passages of the source.

Columns and labels:
[1] = system: K1 culture-adapted P. falciparum strain; set-up: method as in PMID 25791675; conditions: K1 strain of P. falciparum; reference values; read-out: EC50 PfK1; cited from earlier work
HepG2 cell line = conditions: cited from earlier work
[2] = system: K1 culture-adapted P. falciparum strain; test: Antiplasmodial evaluation, SYBR Green I fluorescence-based drug susceptibility test; type: cell-based; conditions: Plasmodium falciparum; multi-resistant K1 strain of P. falciparum, 72 h incubation, three independent experiments; read-out: EC50 PfK1
Experimental: […]. Parasitemia was maintained daily between 1 and 3%. The P. falciparum drug susceptibility test was carried out by comparing quantities of DNA in treated and control cultures of parasite in human erythrocytes according to a SYBR Green I fluorescence-based method[19] using a 96-well fluorescence plate reader. Compounds previously dissolved in DMSO (final concentration less than 0.5% v/v) were incubated in a total assay volume of 200 μL (RPMI, 2% hematocrit and 0.4% parasitemia) for 72 h in a humidified atmosphere (10% O2 and 5% CO2) at 37 °C in 96-well flat bottom plates. Duplicate assays were performed for each sample. After incubation, plates were frozen at […] for 24 h. Then, the frozen plates were thawed for 1 h at 37 °C. Fifteen μL of each sample were transferred to 96-well flat bottom non-sterile black plates (Greiner Bio-one, Kremsmünster, Austria), already containing 15 μL of the SYBR Green I lysis buffer (2X SYBR Green I, 20 mM Tris base pH 7.5, 20 mM EDTA, 0.008% w/v saponin, 0.08% w/v Triton X-100). […] Plates were incubated for 15 min at 37 °C and then read on a TECAN Infinite F-200 spectrophotometer with excitation and emission wavelengths at 485 and 535 nm, respectively.

[3] = Cytotoxic evaluation, MTT assay; type: cell-based; conditions: HepG2 cells, human HepG2 cell line, three independent experiments
Experimental: The HepG2 cell line was maintained at 37 °C, 5% CO2, at 90% humidity in […] supplemented with 10% fetal bovine serum, 1% L-glutamine (200 mM), and penicillin (100 U per mL)/streptomycin (100 μg mL^−1) (complete RPMI medium). The cytotoxicity of the tested molecules on the HepG2 (hepatocarcinoma cell line purchased from ATCC, ref HB-8065) cell line was assessed according to the method of Mosmann[20] with slight modifications. Briefly, 5 × 10^3 cells in 100 μL of complete medium were inoculated into each well of 96-well plates and incubated at 37 °C in humidified 5% CO2. After 24 h incubation, 100 μL of medium with various product concentrations dissolved in DMSO (final concentration less than 0.5% v/v) were added and the plates were incubated for 72 h at 37 °C. Triplicate assays were performed for each sample. Each plate was then microscopically examined for possible precipitate formation before the medium was aspirated from the wells. Next, 100 μL of MTT (3-(4,5-dimethyl-2-thiazolyl)-2,5-diphenyl-2H-tetrazolium bromide) solution (0.5 mg mL^−1 in medium without FBS) was added to each well. Cells were incubated for 2 h at 37 °C. After this time, the MTT solution was removed and DMSO (100 μL) was added to dissolve the resulting blue formazan crystals. Plates were shaken vigorously (700 rpm) for 10 min. The absorbance was measured at 570 nm with 630 nm as a reference wavelength using a BIO-TEK ELx808 Absorbance Microplate Reader (LabX, Midland, ON, Canada). DMSO was used as a blank and doxorubicin (purchased from Sigma Aldrich) as a positive control. Cell viability was calculated as a percentage of control (cells incubated without the compound). […] CC50 values to represent the mean value calculated from three independent experiments.

Microsomal stability = type: in vitro ADME, mouse; conditions: for half-life: CD-1, read-out: t1/2 (half-time, microsomal stability); for half-life / Clint (intrinsic clearance): in vitro, female mouse microsomes, 37 °C, pH 7.4
Experimental: The tested product and propranolol, used as a reference, were incubated in duplicate (reaction mixture volume of 0.5 mL) with female mouse microsomes (CD-1, 20 mg mL; BD Gentest) at 37 °C in a 50 mM phosphate buffer, pH 7.4, in the presence of MgCl2 (5 mM), NADP (1 mM), glucose-6-phosphate dehydrogenase (G6PD) (0.4 U per mL), and glucose-6-phosphate (5 mM). For the estimation of the intrinsic clearance, 50 μL aliquots were collected at 0, 5, 10, 20, 30, and 40 min and the reaction was stopped with 4 volumes of acetonitrile (ACN) containing the internal standard. After centrifugation at 10 000×g for 10 min at 4 °C, the supernatants were conserved at 4 °C for immediate analysis or placed at −80 °C in case of postponement of the analysis. Controls (time zero and final time point) in triplicate were prepared by the incubation of the internal standard with microsomes denatured by acetonitrile. The LC-MS system used for this study was a Waters Acquity I-Class/Xevo TQD equipped with a Waters Acquity BEH C18 column, 50 by 2.1 mm, 1.7 μm. The mobile phases were 10 mM ammonium acetate (mobile phase A) and acetonitrile with 0.1% formic acid (mobile phase B). The injection volume was 1 μL, and the flow rate was 600 μL min^−1. Chromatographic analysis, with a total duration of 4 min, was made with the following gradient: 0 < t < 0.2 min, 2% mobile phase B; 0.2 < t < 2 min, linear increase to 98% mobile phase B; 2 < t < 2.5 min, 98% mobile phase B; 2.5 < t < 2.6 min, linear decrease to 2% mobile phase B; 2.6 < t < 4 min, 2% mobile phase B. The quantification of each compound was obtained by converting the average of the ratios of the analyte/internal standard surfaces to the percentage of consumed product. The ratio of the control at t0 corresponded to 0% of the product consumed. The calculation of the half-life (t1/2) of each compound in the presence of microsomes was carried out according to the equation t1/2 = (ln2)/k, where k is the first-order degradation constant (the slope of the logarithm of the compound concentration versus incubation time). The intrinsic clearance in vitro (Clint, expressed in mlmin^−1mg) was calculated according to the equation Clint = (dose/AUC∞)/[microsomes], where dose is the initial concentration of the product in the sample, AUC∞ is the area under the concentration–time curve extrapolated to infinity, and [microsomes] is the microsome concentration expressed in mg μL^−1.

[4] = read-out: CC50 HepG2, human HepG2 cell line, reference values

Row | Structure (SMILES) | EC50 [1] | CC50 (HepG2 cell line; [4]) | also measured
1 | O=C1C(O)=C([C@H]2CC[C@H](c3ccc(Cl)cc3)CC2)C(=O)c2ccccc21 [Atovaquone, atovaquone] | 0.0013 µM | > 15.6 µM | –
2 | CCN(CC)CCCC(C)Nc1ccnc2cc(Cl)ccc12 (centres unmarked) [Chloroquine, chloroquine] | 0.5 µM | – | –
3 | CC(C)(C)Nc1nc2cc(N3CCCCC3)sc2c(=O)[nH]1 [Compound 1g, 2-tert-Butylamino-6-(piperidin-1-yl)thieno[3,2-d]pyrimidin-4(3H)-one] | – | – | EC50 [2]: 0.77 ± 0.13 µM; CC50 at 72 h [3]: 33.9 ± 1.4 µM; half-life (Microsomal stability): 40 min; Clint (intrinsic clearance) (Microsomal stability): 42 μLmin^−1mg; improvement in the half-time versus M1 (Microsomal stability; mouse microsomes, piperidine moiety (1g) vs tolyl moiety (M1)): more than 3 fold
4 | Cc1ccc(-c2cc3nc(NC(C)(C)C)[nH]c(=O)c3s2)cc1 [Compound M1, gamhepathiopine, reference compound] | 0.045 µM | 24 µM | half-life (Microsomal stability): 11 min; Clint (intrinsic clearance) (Microsomal stability): 240 μLmin^−1mg
5 | COc1cccc2c1C(=O)c1c(O)c3c(c(O)c1C2=O)C[C@@](O)(C(=O)CO)C[C@@H]3O[C@H]1C[C@H](N)[C@H](O)[C@H](C)O1 [Doxorubicine, doxorubicine] | – | – | CC50 (HepG2 cell line): 0.2 µM
6 | C[C@H]1c2cccc(O)c2C(=O)C2=C(O)[C@]3(O)C(=O)C(C(N)=O)=C(O)[C@@H](N(C)C)[C@@H]3[C@@H](O)[C@@H]21 [Doxycycline, doxycycline] | 5 µM | 20 µM | –
7 | Cc1ccc(-c2cc3nc(NC(C)(C)C)[nH]c(=O)c3s2)cc1 [M1 (free base), gamhepathiopine] | 0.2 µM | 25.6 µM | –
